The results in this text go back to patent US20250288536A1, “PROTEIN PARTICLES INCLUDING AN ACTIVE AGENT AND METHODS OF MAKING AND USING THE SAME” (Dairy Mangement Inc., priority 2022, published 2025).

Read-outs that look alike come from different tables or passages of the source.

Data set [1] in a line: Particle size by DLS before and after ultrasonication (Example 2). The note with it: after ultrasonication.
Data set [2] is described as follows: Scanning electron microscopy (SEM) particle size. The note with it: 1 mg/mL dispersion.

As for `N[C@@H](Cc1c[nH]c2ccccc12)C(=O)O` [Trp, tryptophan], the “change of antioxidant activity (ABTS) with HPH treatment” value (0.01 mg/mL) is reported as “increased”. Besides, the “ABTS radical scavenging activity” value (concentration above 0.1 mg/mL) is given as “around 100%”. The “colloidal dispersion stability when adjusting pH to 7” value in data set [1] was “remained stable”.

Turning to α-lactalbumin, the “particle size by SEM (dry state)” value in data set [2] (HPH sample) is on record as approximately 80 nm; in data set [2] (NOHPH sample), approximately 40 nm. Also, the “change of antioxidant activity (ABTS) with HPH treatment” value (after vs before HPH) is “increased”. Under “concentration of 0.5 mg/mL”, the “ABTS radical scavenging activity” value is 20%.
